Reference: patent US7405231B2, “Oxidized thioether derivatives” (Hoffmann-La Roche Inc., priority 2004, dated 2008)

Assays:
HER2 = biological target: T1, HER2 (Homo sapiens, UniProt P04626); test: Inhibition of HER2 phosphorylation in Calu3 tumor cell line; assay type: cell-based; settings: Calu3 cells; for percentage of inhibition of phosphorylation compared with the reference compound: 1 μM compound, versus Example 4, p. 88, WO 01/77107; for inhibition at 1 µM: Calu-3, read-out: Percent inhibition of HER2-phosphorylation
T1 construct: endogenous in cells; host or cells: Calu3 tumor cell line
T1 sequence (P04626 23-1255): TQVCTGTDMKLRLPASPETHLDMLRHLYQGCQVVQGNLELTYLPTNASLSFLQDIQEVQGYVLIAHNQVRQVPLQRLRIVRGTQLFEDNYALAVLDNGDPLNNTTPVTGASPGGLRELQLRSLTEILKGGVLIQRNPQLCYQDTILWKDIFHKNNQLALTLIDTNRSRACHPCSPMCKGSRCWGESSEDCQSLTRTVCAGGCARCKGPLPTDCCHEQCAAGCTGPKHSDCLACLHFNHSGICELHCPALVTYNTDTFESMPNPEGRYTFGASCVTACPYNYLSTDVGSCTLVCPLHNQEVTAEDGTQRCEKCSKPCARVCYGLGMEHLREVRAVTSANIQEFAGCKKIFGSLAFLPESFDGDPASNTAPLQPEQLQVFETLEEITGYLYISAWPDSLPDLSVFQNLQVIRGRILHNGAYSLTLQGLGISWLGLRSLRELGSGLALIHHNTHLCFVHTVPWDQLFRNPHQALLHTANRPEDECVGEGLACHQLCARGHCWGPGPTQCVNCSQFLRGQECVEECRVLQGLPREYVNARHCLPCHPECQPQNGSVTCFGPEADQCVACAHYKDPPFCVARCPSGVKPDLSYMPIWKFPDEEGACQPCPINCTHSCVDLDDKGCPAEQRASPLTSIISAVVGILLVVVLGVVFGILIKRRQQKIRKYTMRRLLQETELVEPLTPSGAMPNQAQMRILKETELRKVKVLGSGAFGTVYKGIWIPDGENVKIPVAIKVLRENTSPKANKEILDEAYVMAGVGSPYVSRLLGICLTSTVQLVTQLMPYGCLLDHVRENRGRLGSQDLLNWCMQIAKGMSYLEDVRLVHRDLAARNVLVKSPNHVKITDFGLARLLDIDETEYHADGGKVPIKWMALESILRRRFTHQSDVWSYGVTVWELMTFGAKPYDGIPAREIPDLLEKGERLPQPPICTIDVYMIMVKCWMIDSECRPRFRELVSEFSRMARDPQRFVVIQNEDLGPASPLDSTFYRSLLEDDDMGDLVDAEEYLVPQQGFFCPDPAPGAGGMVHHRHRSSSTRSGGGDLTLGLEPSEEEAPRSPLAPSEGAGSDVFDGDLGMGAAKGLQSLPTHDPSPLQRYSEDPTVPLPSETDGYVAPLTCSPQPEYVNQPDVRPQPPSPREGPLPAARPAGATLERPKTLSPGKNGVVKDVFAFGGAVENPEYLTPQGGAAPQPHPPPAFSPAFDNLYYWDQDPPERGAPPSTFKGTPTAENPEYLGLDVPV
Description: Inhibition of HER2 phosphorylation in Calu3 tumor cell line.
2×10^5 Calu3 cells per well were plated in a 12-well plate. After 4 days cells were starved for 16 h in DMEM(Dulbecco's Modified Eagle Medium)/0.5% FCS/1% Glutamine. During this time cells were incubated with 1 μM of a compound according to the present invention. Afterwards cells were lysed in lyses buffer containing 1% Triton, 10% Glycerol, 1 mM EGTA, 1.5 mM MgCl2, 150 mM NaCl, 50 mM Hepes pH 7.5, 1 mM PMSF, 10 μg/mL Aprotinin and […] Orthovanadate. Cell lysates were analyzed on a SDS PAGE and after transfer to a nitrocellulose membrane detected with a rabbit antibody specifically recognizing the pY 1248 in HER2 (Cell Signaling). After incubation with an anti rabbit antibody coupled to POD (Biorad) (Peroxidase available from Biorad, Munich, Germany) signals were detected by chemiluminescence (ECL,Amersham). Inhibition of HER2 phosphorylation is calculated as percentage of the DMSO treated control. This percentage is calculated according to the following formula: Inhibition in %=100-(Phosphorylated-HER2-Signal of Test Sample* 100/Phosphorylated-HER2-Signal DMSO-control).

[1] = compound concentration 1 μM, 16 h, pY 1248 in HER2, percentage of the DMSO treated control

Compound	percentage of inhibition of phosphorylation compared with the reference compound (HER2)	inhibition at 1 µM (HER2; [1]) [%]	melting point [°C]	Percent inhibition of HER2-phosphorylation (HER2; [1]) [%]
O=S(=O)(c1ccc(/C=C/c2nc(COc3ccc(CCCCn4ccnn4)cc3)co2)cc1)C(F)(F)F [example 5, 1-[4-(4-{2-[(E)-2-(-4-Trifluoromethanesulfonyl-phenyl)-vinyl]-oxazol-4-ylmethoxy}-phenyl)-butyl]-1H-[1,2,3]triazole]	higher percentage of inhibition of phosphorylation	82.9	133 to 135	
[O-][S+](c1ccc(/C=C/c2nc(COc3ccc(CCCCc4nn[nH]n4)cc3)co2)cc1)C(F)(F)F (stereo not shown) [example 7, 5-[4-(4-{2-[(E)-2-(-4-Trifluoromethanesulfinyl-phenyl)-vinyl]-oxazol-4-ylmethoxy}-phenyl)-butyl]-2H-tetrazole]	higher percentage of inhibition of phosphorylation	52.9		
[O-][S+](c1ccc(/C=C/c2nc(COc3ccc(CCCCn4ccnn4)cc3)co2)cc1)C(F)(F)F (stereo not shown) [example 4, 1-[4-(4-{2-[(E)-2-(-4-Trifluoromethanesulfinyl-phenyl)-vinyl]-oxazol-4-ylmethoxy}-phenyl)-butyl]-1H-[1,2,3]triazole]	higher percentage of inhibition of phosphorylation	94.4	122 to 123	
Cc1cc(OCc2coc(C=Cc3ccc(S(=O)(=O)C(F)(F)F)cc3)n2)ccc1CCCCn1ccnn1 [Example 20, 1-[4-(2-Methyl-4-{2-[2-(4-trifluoromethanesulfonyl-phenyl)-vinyl]-oxazol-4-ylmethoxy}-phenyl)-butyl]-1H-[1,2,3]triazole]			140 to 142	
[O-][S+](c1ccc(/C=C/c2nc(COc3ccc(CNCCn4ccnn4)cc3)co2)cc1)C(F)(F)F (stereo not shown) [Example 3, (2-[1,2,3]Triazol-1-yl-ethyl)-(4-{2-[(E)-2-(4-trifluoromethanesulfinyl-phenyl)-vinyl]-oxazol-4-ylmethoxy}-benzyl)-amine]			111 to 113	
[O-][S+](c1ccc(C=Cc2nc(COc3ccc(CCCCn4ccnc4)cc3)co2)cc1)C(F)(F)F (stereo not shown) [example 1, 4-[4-(4-Imidazol-1-yl-butyl)-phenoxymethyl]-2′-[2-(4-trifluoromethanesulfinyl-phenyl)-vinyl]-oxozole]	higher percentage of inhibition of phosphorylation			92.5
O=S(=O)(NCCn1ccnn1)c1ccc(OCc2coc(C=Cc3ccc([S+]([O-])C(F)(F)F)cc3)n2)cc1 (stereo not shown) [Example 13, N-(2-[1,2,3] Triazol-1-yl-ethyl)-4-{2-[2-(4-trifluoromethanesulfinyl-phenyl)-vinyl]-oxazol-4-ylmethoxy}-benzenesulfonamide]			172 to 174	
[O-][S+](c1ccc(/C=C/c2nc(COc3ccc(CCCCn4ccnn4)cc3)cs2)cc1)C(F)(F)F (stereo not shown) [example 15, 1-[4-(4-{2-[(E)-2-(4-Trifluoromethanesulfinyl-phenyl)-vinyl]-thiazol-4-ylmethoxy}-phenyl)-butyl]-1H-[1,2,3]triazole]	higher percentage of inhibition of phosphorylation	73.6	118 to 119	
